Reference: ChEMBL document CHEMBL1201862, “PubChem BioAssay data set” (2004)
Calls of active or inactive are those of the source. For most assays here, no stated cut-off is given here; in the data, actives have a measured EC50 and inactives only a lower limit.

Key:
[1] = biological target: T1, Calpain-2 catalytic subunit (Sus scrofa, UniProt P43367); test: m-calpain protease blockers, concentration series – biochemical, fluorogenic peptide substrate, dose response (AID 1420); assay type: functional
T1 sequence (P43367 whole entry): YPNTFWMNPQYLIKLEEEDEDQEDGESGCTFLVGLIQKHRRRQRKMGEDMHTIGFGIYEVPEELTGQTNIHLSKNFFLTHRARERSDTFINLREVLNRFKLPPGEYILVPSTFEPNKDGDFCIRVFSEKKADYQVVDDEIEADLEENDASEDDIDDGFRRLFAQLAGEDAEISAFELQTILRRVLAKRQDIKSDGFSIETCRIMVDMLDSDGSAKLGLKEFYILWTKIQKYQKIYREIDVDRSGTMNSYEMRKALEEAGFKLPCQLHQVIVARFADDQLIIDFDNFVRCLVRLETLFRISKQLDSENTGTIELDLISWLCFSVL

[2] = Trypanosoma cruzi growth suppression in host cells – NIH3T3 host cells, beta-gal luminescence, confirmation (AID 2044); assay type: functional, cell-based;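 further: intracellular parasites grown in NIH/3T3 mouse fibroblasts as host cells; luminescent beta-galactosidase reporter signal from transgenic T. cruzi replicating inside host cells; inhibitors lower the luminescence signal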
[3] = NIH3T3 cell viability loss – ATP luminescence, mouse fibroblasts, counter-screen, dose response (AID 2010); assay type: functional, cell-based;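 further: cells exposed to compound for about 90 hours before reading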
[4] = Luminescence Cell-Based Dose Confirmation HTS to Identify Activators of 5'UTR Stem-Loop Driven Alpha-Synuclein mRNA Translation in H4 Neuroglioblastoma Cells. [Related pubchem assays: 1829 (Project Summary), 1814 (Primary HTS)]; assay type: functional
[5] = Luminescence Cell-Based Dose Response HTS to Identify Activators of Luciferase Translation or Activity in H4 […] Cells. [Related pubchem assays: 1829 (Project Summary), 1814 (Primary HTS)]; assay type: functional
[6] = test system: H4; test: Luminescence Cell-Based Dose Response HTS to Identify Activators of 5'UTR Stem-Loop Driven Prion Protein mRNA Translation in H4 Neuroglioblastoma Cells. [Related pubchem assays: 1829 (Project Summary), 1814 (Primary HTS)]; assay type: functional; conditions: Homo sapiens
[7] = biological target: T2, Protein skinhead-1 (Caenorhabditis elegans, UniProt P34707); assay type: functional
T2 sequence (P34707 whole entry): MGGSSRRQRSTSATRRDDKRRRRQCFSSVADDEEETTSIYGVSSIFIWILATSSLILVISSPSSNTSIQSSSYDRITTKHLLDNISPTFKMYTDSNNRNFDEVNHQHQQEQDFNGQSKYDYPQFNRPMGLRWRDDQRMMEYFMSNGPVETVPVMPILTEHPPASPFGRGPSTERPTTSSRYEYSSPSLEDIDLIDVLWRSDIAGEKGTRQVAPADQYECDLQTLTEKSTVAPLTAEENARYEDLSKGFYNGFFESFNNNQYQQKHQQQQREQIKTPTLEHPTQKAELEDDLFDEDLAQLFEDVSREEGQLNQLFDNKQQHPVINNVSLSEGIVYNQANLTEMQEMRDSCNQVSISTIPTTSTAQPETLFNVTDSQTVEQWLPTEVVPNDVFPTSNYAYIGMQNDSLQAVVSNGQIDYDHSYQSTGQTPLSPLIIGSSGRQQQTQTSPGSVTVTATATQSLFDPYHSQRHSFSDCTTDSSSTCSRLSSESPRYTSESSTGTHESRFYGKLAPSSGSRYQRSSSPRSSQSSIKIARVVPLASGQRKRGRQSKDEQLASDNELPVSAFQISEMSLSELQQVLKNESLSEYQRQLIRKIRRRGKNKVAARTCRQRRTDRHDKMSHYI

[8] = biological target: T3, Heat shock factor protein 1 (Mus musculus, UniProt P38532); test: decrease of HSF1-responsive luciferase luminescence – cell-based, NIH3T3, dose retest, confirmation (AID 2382); assay type: functional;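 further: NIH3T3 fibroblasts with HSF1-driven luciferase reporter stressed by proteasome inhibitor MG132; luminescence from HSF1-driven luciferase expression after 8 hours of MG132 stress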
T3 sequence (P38532 whole entry): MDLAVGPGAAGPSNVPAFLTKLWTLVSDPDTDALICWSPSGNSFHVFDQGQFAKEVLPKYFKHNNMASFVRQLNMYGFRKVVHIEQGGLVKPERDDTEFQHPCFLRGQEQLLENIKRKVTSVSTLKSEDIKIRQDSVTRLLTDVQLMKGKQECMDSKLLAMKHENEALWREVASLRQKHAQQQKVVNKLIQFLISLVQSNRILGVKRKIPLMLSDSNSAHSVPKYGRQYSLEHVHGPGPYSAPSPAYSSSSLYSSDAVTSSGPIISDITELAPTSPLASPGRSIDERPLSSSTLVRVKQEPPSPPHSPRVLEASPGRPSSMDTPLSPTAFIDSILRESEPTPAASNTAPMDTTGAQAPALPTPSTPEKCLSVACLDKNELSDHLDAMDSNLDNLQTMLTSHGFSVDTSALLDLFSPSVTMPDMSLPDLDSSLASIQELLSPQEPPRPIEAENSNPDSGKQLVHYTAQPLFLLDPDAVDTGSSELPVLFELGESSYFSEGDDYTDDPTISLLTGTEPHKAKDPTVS

[9] = test system: Streptococcus sp. 'group A'; test: Streptococcus pyogenes SK(-)GAS viability under kanamycin – luminescence, BacTiterGlo, confirmation, counter-screen for streptokinase expression inhibitor project, dose response (AID 1900); assay type: functional, organism-based
[10] = biological target: T4, Streptokinase A (Streptococcus pyogenes serotype M1, UniProt P10520); test: viability-normalized secreted streptokinase activity reduction – plasminogen activation absorbance, OD405, dose response (AID 1914); assay type: functional, Streptococcus pyogenes M1 GAS;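 further: secreted streptokinase activity via plasminogen activation per viability signal from cell pellet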
T4 sequence (P10520 whole entry): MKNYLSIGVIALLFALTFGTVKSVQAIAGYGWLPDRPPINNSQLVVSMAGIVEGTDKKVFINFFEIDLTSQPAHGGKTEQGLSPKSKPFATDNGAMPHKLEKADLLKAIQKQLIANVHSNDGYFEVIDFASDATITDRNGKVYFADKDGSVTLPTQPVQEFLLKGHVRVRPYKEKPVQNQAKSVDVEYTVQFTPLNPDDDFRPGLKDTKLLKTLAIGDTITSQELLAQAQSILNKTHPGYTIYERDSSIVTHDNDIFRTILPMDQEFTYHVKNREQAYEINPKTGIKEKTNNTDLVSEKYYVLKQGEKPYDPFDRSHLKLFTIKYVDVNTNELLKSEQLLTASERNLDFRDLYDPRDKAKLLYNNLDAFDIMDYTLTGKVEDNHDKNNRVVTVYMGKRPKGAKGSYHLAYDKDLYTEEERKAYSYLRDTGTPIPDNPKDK

[11] = test system: Streptococcus; test: GAS UMAA2166 growth inhibition – luminescence, BacTiterGlo, counter-screen for streptokinase expression inhibitor project, dose response (AID 1915); assay type: functional, organism-based;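 further: potency for reduction of bacterial viability or growth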
[12] = Luminescence Cell-Based Dose Retest to Confirm Inhibitors of Cancer Stem Cells. [Related pubchem assays (depositor defined):AID2717, AID2721]; assay type: functional; conditions: Homo sapiens
[13] = P. falciparum Dd2 growth inhibitors, dose response, SYBR Green, cherry-picked samples (AID 1159567); assay type: functional, cell-based
[14] = biological target: Paired box protein Pax-8 (Homo sapiens, UniProt Q06710); test: PAX8 transcriptional activity inhibition in RMG-I – RMG-I cells, luciferase, cherry-pick, dose response (AID 687027); assay type: functional, cell-based;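 further: luciferase reporter driven by Pax8 target thyroperoxidase promoter measured by SteadyGlo luminescence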
[15] = HIV-1 AD8 envelope cell-cell fusion blockers – cherry-pick, dose response (AID 652062); assay type: functional, cell-based;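 further: luciferase signal from cell-cell fusion driven by HIV-1 clade B AD8 Env; potency is for inhibitors of fusion seen as a drop in luminescence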

Sequence of Paired box protein Pax-8 (Q06710 whole entry, the tested form may be a part): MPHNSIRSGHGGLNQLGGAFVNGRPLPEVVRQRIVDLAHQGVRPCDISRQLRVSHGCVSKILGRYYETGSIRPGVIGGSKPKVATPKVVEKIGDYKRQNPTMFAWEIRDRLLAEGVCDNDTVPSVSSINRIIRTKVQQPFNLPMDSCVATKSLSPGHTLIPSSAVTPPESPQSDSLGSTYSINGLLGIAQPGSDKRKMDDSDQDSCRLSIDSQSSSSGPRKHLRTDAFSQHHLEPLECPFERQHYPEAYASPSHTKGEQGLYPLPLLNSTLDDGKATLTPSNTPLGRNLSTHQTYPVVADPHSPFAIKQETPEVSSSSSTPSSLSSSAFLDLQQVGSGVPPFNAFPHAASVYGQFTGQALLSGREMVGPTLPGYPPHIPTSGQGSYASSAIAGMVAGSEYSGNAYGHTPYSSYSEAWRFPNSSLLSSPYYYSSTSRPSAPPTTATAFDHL

## Cc1ccccc1N=C(S)N(CCc1c(C)[nH]c2ccc(F)cc12)Cc1cccnc1
[1]
  IC50: > 50 µM (not active)

## CCOC(=O)N1CCc2c(sc3c2c(=O)n(Cc2ccccc2)c(=O)n3CC(=O)NCCOC)C1
[1]
  IC50: 7.05 µM (not active)

## O=C(NCCC1=CCCCC1)c1ccc2c(c1)N(Cc1ccccc1)C(=O)CS2
[2]
  EC50: 2.88 µM (active)
[1]
  IC50: 5.5 µM (not active)
[3]
  EC50: > 30 µM (not active)

## Clc1ccc(C#Cc2cccnc2)cc1
[4]
  EC50: 17.4 µM (active)
[5]
  EC50: 24.1 µM (active)
[6]
  EC50: 1.73 µM (active)
[7]
  IC50: 12.6 µM (active)

## O=C1CC(C(=O)Nc2ccc(Cl)cc2)n2ncnc2N1 (stereo not drawn)
[1]
  IC50: < 0.4 µM (not active)

## CSc1ccc(CN(C)CC(=O)Nc2c(F)cccc2F)cc1
[1]
  IC50: 2.25 µM (not active)

## CC(C)(C)NC1=NN=C(c2ccc(Cl)cc2)CS1
[7]
  IC50: 13.9 µM (active)

## CS(=O)(=O)N(CC(=O)O)c1ccc(C23CC4CC(CC(C4)C2)C3)cc1
[8]
  EC50: > 195 µM (not active)

## Fc1ccc(CSc2nc3ccccc3[nH]2)c2ccccc12
[9]
  EC50: 8.67 µM (active)
[10]
  EC50: 14.1 µM (active)
[1]
  IC50: 2.61 µM (not active)
[11]
  EC50: 13.9 µM (active)
[12]
  AC50: 5.37 µM (active)

## N#CCc1ccc(NC(=O)Nc2cccc3ccccc23)cc1
[8]
  EC50: > 195 µM (not active)

## Cc1ccnn2c(-c3ccccc3)c3c(=O)n(C)c(=O)n(C)c3c12
[9]
  EC50: > 150 µM (not active)
[10]
  EC50: > 150 µM (not active)
[11]
  EC50: > 150 µM (not active)

## CC(=O)c1cn(CC(=O)Nc2ccccc2C)c2ccccc12
[8]
  EC50: > 195 µM (not active)

## CC(C)(C)C1CC=C2C(C#N)=C(N)C(C#N)(C#N)C(c3cccs3)C2C1 (stereo not drawn)
[9]
  EC50: 14.9 µM (active)
[10]
  EC50: 25.7 µM (active)
[11]
  EC50: > 150 µM (not active)

## N#C[C@@H]1[C@H](c2ccccc2-c2cccc(F)c2)[C@H](CO)N1C(=O)C1CC1
[13]
  AC50: 3.48 µM (active)

## CCN(CC)C(=O)c1ccc(-c2ccccc2)cc1
[8]
  EC50: > 195 µM (not active)

## CN1C(=O)/C(=C\c2ccccc2F)Sc2ccc(C(=O)NC3CCN(Cc4ccccc4)CC3)cc21
[9]
  EC50: 7.12 µM (active)
[10]
  EC50: > 150 µM (not active)
[2]
  EC50: 0.243 µM (active)
[3]
  EC50: > 60 µM (not active)
[11]
  EC50: 41.8 µM (active)

## CCOC(=O)N1CCN(c2ncnc3c2cnn3-c2ccc(OC)cc2)CC1
[7]
  IC50: > 100 µM (inactive)

## C[C@@H]1CN([C@@H](C)CO)C(=O)c2c(c3ccccc3n2C)-c2ccccc2CO[C@H]1CN(C)C(=O)Nc1ccc2c(c1)OCO2
[14]
  AC50: 5.68 µM (active)

## COc1cccc(/C=C/C(=O)NCc2ccc3c(c2)OCO3)c1
[8]
  EC50: > 195 µM (not active)

## Cc1cccc(C#Cc2ccccc2)n1
[7]
  IC50: > 100 µM (inactive)

## OC[C@@H]1CC[C@@H]2O[C@H](CCc3ccc(-c4ccc(F)cc4)cc3)[C@H](n3cc(C4CC4)nn3)C[C@@H]2O1
[13]
  AC50: 7.67 µM (active)

## CCC(=O)N1CCC2(CC1)CN(Cc1ccc3c(c1)OCO3)[C@@H](CO)c1c2c2ccc(OC)cc2n1C
[13]
  AC50: 4.05 µM (active)

## CCCCSc1nnc(-c2ccc(C)cc2)c2ccccc12
[1]
  IC50: 5.25 µM (not active)

## CC(C)c1ccc(-n2cccc2/C=C2/C(=N)N3C=CSC3=NC2=O)cc1
[9]
  EC50: 2.1 µM (active)
[10]
  EC50: > 150 µM (not active)
[11]
  EC50: 14.7 µM (active)

## Oc1ccc(C[C@H]2CN([C@@H](Cc3ccc(O)cc3)CN3CCC[C@@H]3CN3C(=S)NC[C@@H]3Cc3ccccc3)C(=S)N2CC2CCCCCC2)cc1
[14]
  AC50: 9.27 µM (active)

## CCc1ccccc1NC(=O)c1ccc(NS(C)(=O)=O)cc1
[8]
  EC50: > 195 µM (not active)

## COc1cc(C(=O)OCC(=O)c2c(N)n(C)c(=O)n(C)c2=O)ccc1OCCC(C)C
[9]
  EC50: 12.7 µM (active)
[10]
  EC50: > 150 µM (not active)
[11]
  EC50: > 150 µM (not active)

## Cc1ccc(NC(=O)CSc2nc(N)cc(O)n2)cc1S(=O)(=O)N1CCCCCC1
[7]
  IC50: > 100 µM (inactive)

## Cc1ccc(N(CC(=O)NCC2CCCO2)S(=O)(=O)c2ccc(Cl)cc2)cc1C (stereo not drawn)
[7]
  IC50: > 100 µM (inactive)

## COCC#Cc1ccc(CC[C@H]2O[C@H]3CC[C@@H](CO)O[C@H]3C[C@@H]2n2cc(C3CC3)nn2)cc1
[13]
  AC50: 5.82 µM (active)

## Cc1ccc(NC(=O)c2ccc(F)cc2F)cc1
[7]
  IC50: 79 µM (inactive)

## O=C(C[C@H]1C[C@@H]2c3cc(NC(=O)C4CCOCC4)ccc3O[C@@H]2[C@H](CO)O1)NCc1ccccc1
[15]
  AC50: 2.09 µM (active)

## Cc1c(C(=O)N(C)c2ccc(Cl)cc2)cnn1-c1ccccc1
[7]
  IC50: > 100 µM (inactive)

## CC(CCc1ccccc1)NC(=O)CSc1cccc[n+]1[O-] (stereo not drawn)
[1]
  IC50: 44.7 µM (not active)

## C[C@H]1CN([C@@H](C)CO)C(=O)c2cccc(NC(=O)Nc3ccc(F)cc3)c2O[C@H]1CN(C)C(=O)Nc1ccc(C(F)(F)F)cc1
[14]
  AC50: 13.1 µM (active)

## C=CCn1c(N2C(=O)CC(Cc3ccccc3)C2=O)nc2ccccc21 (stereo not drawn)
[9]
  EC50: 9.02 µM (active)
[10]
  EC50: > 150 µM (not active)
[11]
  EC50: > 150 µM (not active)

## N#C/C(=C\c1ccco1)Sc1nc2ccccc2s1
[4]
  EC50: 13.9 µM (active)
[5]
  EC50: 11.8 µM (active)
[6]
  EC50: 25.6 µM (active)
[7]
  IC50: > 100 µM (inactive)

## COc1cc(C(=O)NS(=O)(=O)c2ccccc2C)ccc1Cc1cn(C)c2ccc(NC(=O)OC3CCCC3)cc12 [ZAFIRLUKAST]
[9]
  EC50: 0.936 µM (active)
[10]
  EC50: > 50 µM (not active)
[11]
  EC50: > 50 µM (not active)

## CCn1c(S(=O)(=O)O)nc2ccccc21
[8]
  EC50: > 195 µM (not active)

## CN1c2ccc(C#Cc3cccnc3)cc2[C@@H]2[C@@H](CCN2C(=O)C2CCC2)[C@@H]1CO
[13]
  AC50: 4.18 µM (active)
